These results are taken from US11099176B2 (priority 2015, dated 2021).

Each structure is given as a SMILES string. Where two headings read alike, the source gives them in different places.

For test [1], the target named is Marinobacter sp. msLacBP6 variant Y187C (187C), SEQ ID NO: 38, Acrylodan conjugate. Kind of test: Fluorescence titration of conjugate. It is filed as binding.
Test [2] relates to Anaeromyxobacter dehalogenans adLacBP9 variant F191C, SEQ ID NO: 44, Acrylodan conjugate. Put plainly: Fluorescence titration of conjugate. The format is binding. Also noted: key: nb: no binding. On the procedure: (§1) 12-, 24-, or 48-point logarithmic titration series were prepared on a Tecan Freedom liquid-handling robot, using an in-house program, ‘TitrationPlate’, that compiles an abstract description of a multi-component titration series into machine instructions for operating the robot. Temperature-dependent fluorescence emission intensities of 20 μL aliquots, each containing 10 μM protein, were measured in 384-well microtiter plates in a LightCycler 480 II (Roche) using excitation and emission wavelengths available for this instrument that most closely matched the optical characteristics of the fluorescent conjugate. Temperatures were advanced in 1K steps. At each temperature, data was collected at 1-second intervals for 60 seconds at which point the signal had relaxed to a steady value associated with the new temperature. […] The in-house program ‘TitrationMeltPlate’ was used to convert these observations into time-independent datasets that record fluorescence as a function of temperature for each well and associate wells with their concentration of titrant and additive. Management tools were developed to maintain a database of titrations and their analyses.
(§2) Ligand- and wavelength-dependent emission intensities were recorded on a Nanodrop3300 (Thermo Scientific) at room temperature. Using the LED closest to the optimal excitation wavelength of the fluorophore (UV, 365 nm; blue, 470 nm; ‘white’, 460-550 nm).
(§3) Monochromatic emission intensities Iλ (these intensities correspond to a bandpass intensity, recorded either with a physical filter in the case of the Roche LightCycler, or by integrating in the interval λ−δ, λ+δ in the case of an emission spectrum), were fit to Iλ=^apoβλ(1−ytrue)+^satβλytrue 1 where ^apoβλ and ^satβλ are the fluorescence baselines associated with the ligand-free and ligand-bound states of the protein, respectively, and ytrue the fractional saturation of the protein (Layton and Hellinga, 2010, Biochemistry, 49, 10831-41). Baseline functions can be constant, linear, or a second-order polynomial.

The test system of test [3] is Anaeromyxobacter dehalogenans adLacBP9 variant F191C, SEQ ID NO: 44, Badan conjugate. Kind of test: Fluorescence titration of conjugate. Set-up: key: nb: no binding. It is filed as binding. As for the experimental part: as §1, §2, §3
The target of test [4] is Marinobacter sp. msLacBP6 variant 187C, L70M, SEQ ID NO: 53, Badan conjugate. Kind of test: Fluorescence titration of conjugate (affinity tuning). It is filed as binding. The following applies: λ1 459, λ2 539 nm.
Test [5] addresses T1, Polymorphum gilvum pgLacBP10, YP_004304976.1, SEQ ID NO: 10 (expressed form SEQ ID NO: 24) (Polymorphum gilvum, UniProt F2IY60).
T1 sequence (F2IY60 with tags, fused parts or gaps): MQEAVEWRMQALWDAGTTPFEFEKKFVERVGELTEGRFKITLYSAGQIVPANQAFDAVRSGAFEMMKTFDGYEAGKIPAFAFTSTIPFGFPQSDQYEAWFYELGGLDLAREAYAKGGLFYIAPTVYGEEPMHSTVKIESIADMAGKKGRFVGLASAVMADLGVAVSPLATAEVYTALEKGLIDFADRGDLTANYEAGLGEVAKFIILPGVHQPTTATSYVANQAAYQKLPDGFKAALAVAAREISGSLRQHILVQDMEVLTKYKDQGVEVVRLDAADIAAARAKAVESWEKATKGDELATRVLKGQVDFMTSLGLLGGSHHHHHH
Kind of test: Lactate binding by thermal stability shift. Also noted: key to appKd (lactate) / trueKd (lactate): nb: no binding. From the text:
These experiments comprise four successive steps: • 1. Synthetic gene construction. The amino acid sequence of the homology leads are back translated into DNA sequences. These are optimized for directing heterologous cytoplasmic expression of the protein homologues in E. coli, using either the OrfOpt or OrfMorph programs. These programs predict mRNA sequences that direct high-level protein expression in E. coli. The predicted gene sequences are assembled de novo from synthetic oligonucleotides. • 2. Heterologous protein expression of the homologues in E. coli. Plasmids carrying the synthetic expression constructs (see above) were transformed into KRX competent cells (Promega). Protein production was induced in bacterial cultures of these cultures. • 3. Purification of successfully expressed protein using immobilized metal affinity chromatography. • 4.
The thermal stability of purified LacBP candidate proteins was determined by measuring the temperature-dependence of the fluorescence signal of an extrinsically added dye, SYPRO, using a Roche LightCycler (Layton and Hellinga, 2010, Biochemistry, 49, 10831-41). The total fluorescence intensity, S, is given by S=βFfF+βUfU 11 where fF and fU are the fractions of protein in the folded and unfolded states, respectively, and βF and βUthe fluorescence baselines of these two states. To get the fractions of the two states, we have
To obtain the temperature dependence of the binding reaction, the Kd values of all the individually determined isotherms were fit the Gibbs-Hemholtz equation (Layton and Hellinga, 2010, Biochemistry, 49, 10831-41): […]

Test [6] concerns the target Marinobacter sp. msLacBP6 variant 187C, D220E, SEQ ID NO: 56, Badan conjugate. Put plainly: Fluorescence titration of conjugate (affinity tuning). It is filed as binding. The following applies: read-out: trueKd (lactate); monochromatic, 532 nm.
The target of test [7] is Marinobacter sp. msLacBP6 variant 187C, F68L, SEQ ID NO: 49, Badan conjugate. The description is as above. It is filed as binding. The following applies: λ1 463, λ2 535 nm.
In test [8] the target is Marinobacter sp. msLacBP6 variant 187C, F68M, SEQ ID NO: 50, Badan conjugate. The description is as above. The following applies: λ1 464, λ2 527 nm. The format is binding.
For test [9], the target named is Marinobacter sp. msLacBP6 variant G170C, SEQ ID NO: 36, Acrylodan conjugate. Put plainly: Fluorescence titration of conjugate. It is filed as binding. The following applies: λ1 518, λ2 490 nm.
The mark [10] stands for this setting: Roche LightCycler, SYPRO Orange.

With `C[C@H](O)C(=O)O` [lactate], the Kd in test [1] (read-out: appKd (lactate), approximate, text statement for Acrylodan and Badan conjugates) was approximately 400 µM; in [1] (read-out: appKd (lactate), λ1 452, λ2 482 nm as printed in Table 5), 400 µM; in test [1] (read-out: appKd (lactate), λ1 452, λ2 582 nm (FIG. 5A, Table 7)), 400 µM; in [1] (read-out: appKd (lactate), λ1 483, λ2 451 nm (Table 6)) it was 230 µM; in test [1] (read-out: trueKd (lactate), λ1 452, λ2 482 nm as printed in Table 5) it was 300 µM; in [1] (read-out: trueKd (lactate), λ1 452, λ2 582 nm (FIG. 5A, Table 7)), 300 µM. Further, the Kd in [1] (read-out: trueKd (lactate), λ1 483, λ2 451 nm (Table 6)) amounted to 350 µM; in [4] (read-out: appKd (lactate)), 1100 µM; in test [4] (read-out: trueKd (lactate)), 700 µM; in test [6], 3.1 mM; in [7] (read-out: appKd (lactate)), 400 µM; in test [7] (read-out: trueKd (lactate)), 400 µM. Moreover, the Kd in test [8] (read-out: appKd (lactate)) worked out at 500 µM; in [8] (read-out: trueKd (lactate)) it was 600 µM; in test [9] (read-out: appKd (lactate)), 10 µM; in [9] (read-out: trueKd (lactate)) it was 5 µM. Also, the “appKd (lactate)” value in [2] is listed as “nb”; in [3], “nb”; in [5] (setting [10]), “nb^f”. The “trueKd (lactate)” value in test [2] was “nb”; in [3], “nb”; in [5] (setting [10]), “nb^f”. Besides, the “Lactate Binding” value in test [5] (thermostability vs ligand concentration, fluorescence response of labeled conjugate) is recorded as “weak^f,g”.
